US4743609A, “Indole derivatives having gastric and antisecretory and cytoprotective properties, and pharmaceutical preparations containing same” (Banyu Pharmaceutical Co., Ltd., priority 1985, dated 1988)
Like-named read-outs stand apart in the source and are kept apart here.

How the values were obtained:
rabbit gastric glands = assay: Inhibitory effects on aminopyrine uptake into gastric glands; format: cell-based; details: Oryctolagus cuniculus, 0.5 h, 37° C., 30 minutes, untreated control = 100%; for activity at 100 µM: 10^-4 M test compound; for activity at 10 µM: 10^-5 M test compound; for activity at 1 µM: 10^-6 M test compound
Source text: The production of gastric acid in the gastric mucosa is known to be performed by the parietal cells which are one kind of the cells constituting the gastric glands. The extent of the gastric acid secretion by the parietal cells has been deduced to be proportional to the rate of aminopyrine uptake into the gastric glands. Accordingly, the investigation of aminopyrine uptake into the gastric glands has been generally used as the indirect method for measuring the gastric acid secretion. Therefore, suspension of the rabbit gastric glands was prepared according to the method of Berglindh et al (see "Acta Physiol. Scand." 97, 401-414 (1976)). […] After this incubation, the reaction mixture obtained was centrifuged so that the gastric glands were spun down and separated from the incubation mixture. The gastric glands so collected were liophylized and the dry weight of the glands was measured. […] The so determined value of the radio-activity was assumed as the concentration or level of the aminopyrine uptaken into the gastric glands. According to the report of Berglindh et al (see "Acta Physiol. […] The radio-activity of the supernatant of the incubation mixture was determined in the same manner as above by the liquid scintillation counter, and the so determined value of the radio-activity of the supernatant was assumed to be the concentration or level of the aminopyrine present in the extraglandular water with the assumption that the so determined concentration of the aminopyrine in the supernatant was a measure of showing the quantity of the aminopyrine remaining not uptaken into gastric glands. Rate of aminopyrine uptake into gastric glands was calculated according to the following equation: [formula] The above experiment was repeated without the test compound as the Control test (untreated with test compound), and the rate of aminopyrine uptake as determined for this control test (untreated) was assumed to be 100%. The value (% of Control) was taken as showing the inhibitory effects of the test compound on the acid secretion. As a comparative drug, omeprazole was tested in the same way as above.

H^+,K^+ -ATPase = target: T1, H^+,K^+ -ATPase (Oryctolagus cuniculus, UniProt P27112); assay: Inhibitory effects on the enzymatic activity of H^+,K^+ -ATPase; format: biochemical, rabbit
T1 construct: The rabbit gastric glands were homogenized and the microsomal fractions were prepared; from tissue; host or cells: rabbit gastric glands, light membrane fraction between 30% and 40% sucrose
T1 sequence (P27112 whole entry): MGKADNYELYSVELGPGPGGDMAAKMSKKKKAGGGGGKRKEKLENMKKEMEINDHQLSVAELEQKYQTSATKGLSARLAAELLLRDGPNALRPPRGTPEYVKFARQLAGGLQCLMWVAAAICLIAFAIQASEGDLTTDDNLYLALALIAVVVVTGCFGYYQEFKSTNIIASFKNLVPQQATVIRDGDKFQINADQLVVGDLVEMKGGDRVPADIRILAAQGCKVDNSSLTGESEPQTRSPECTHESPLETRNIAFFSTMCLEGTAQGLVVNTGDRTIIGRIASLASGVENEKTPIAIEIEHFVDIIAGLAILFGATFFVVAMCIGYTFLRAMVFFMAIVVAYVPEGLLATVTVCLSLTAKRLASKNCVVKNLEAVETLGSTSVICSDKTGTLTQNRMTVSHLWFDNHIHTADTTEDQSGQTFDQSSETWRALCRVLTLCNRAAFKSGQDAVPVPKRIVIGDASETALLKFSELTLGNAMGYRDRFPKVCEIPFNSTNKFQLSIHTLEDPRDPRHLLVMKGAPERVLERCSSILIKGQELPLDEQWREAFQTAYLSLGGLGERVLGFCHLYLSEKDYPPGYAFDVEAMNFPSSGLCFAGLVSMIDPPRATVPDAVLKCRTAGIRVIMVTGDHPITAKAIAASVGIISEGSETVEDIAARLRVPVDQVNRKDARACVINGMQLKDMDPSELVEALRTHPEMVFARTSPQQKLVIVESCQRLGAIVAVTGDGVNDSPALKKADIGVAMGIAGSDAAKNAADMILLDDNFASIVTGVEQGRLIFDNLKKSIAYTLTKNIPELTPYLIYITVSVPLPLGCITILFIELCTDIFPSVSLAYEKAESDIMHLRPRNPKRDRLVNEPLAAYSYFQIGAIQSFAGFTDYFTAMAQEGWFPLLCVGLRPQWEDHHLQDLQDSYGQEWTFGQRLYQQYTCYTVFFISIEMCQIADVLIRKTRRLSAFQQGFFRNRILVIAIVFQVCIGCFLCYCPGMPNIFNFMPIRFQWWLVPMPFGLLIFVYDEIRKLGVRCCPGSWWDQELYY
T1 sequence (P18597 whole entry partner): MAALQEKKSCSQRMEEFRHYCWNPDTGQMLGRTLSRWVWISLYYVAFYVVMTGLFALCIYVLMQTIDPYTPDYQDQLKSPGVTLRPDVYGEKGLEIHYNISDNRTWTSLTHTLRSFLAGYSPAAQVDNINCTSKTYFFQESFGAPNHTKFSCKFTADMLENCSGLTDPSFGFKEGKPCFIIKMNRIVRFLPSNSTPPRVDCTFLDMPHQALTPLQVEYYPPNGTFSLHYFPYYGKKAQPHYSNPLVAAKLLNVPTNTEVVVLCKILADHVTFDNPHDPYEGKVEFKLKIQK
Experimental: The rabbit gastric glands were homogenized and the microsomal fractions were prepared by differential centrifugation of the resultant homogenate. The microsomal fractions were layered on a linear continuous sucrose gradient ranging from 20 to 55% (W/V) sucrose and centrifuged to obtain the light membrane fractions sedimenting between 30% sucrose and 40% sucrose. The light membrane fractions containing the H^+,K^+ -ATPase so obtained were used to estimate the inhibitory effects of the new compound of this invention or omeprazole on the enzymatic activity of H^+,K^+ -ATPase. Test compounds were pre-incubated with the reaction mixture containing the enzyme (20-50 μg as protein) for 30 minutes at 37° C. After this, the enzymatic activity of the reaction mixture was determined by incubating for 20 minutes at 37° C. with the following reactant mixture comprising 10 mM MgCl2, 10 mM ATP disodium salt and 400 mM Tris-HCl (pH 7.3) with or without 50 mM KCl.

gastric mucosa = assay: Preventing the gastric ulcer induced by ethanol-hydrochloric acid (gastric cytoprotection); format: in vivo, SD-strain rats; details: Rattus norvegicus, po, rats; 30 minutes before 0.2N hydrochloric acid-50% aqueous ethanol; read-out: ED50 effective for 50% inhibition to the formation of necrotic lesions
Experimental: Thus, according to the method of Robert et al (see "Gastroenterology" 77, 433-443 (1979)), SD-strain rats (male, weighing 200 to 220 g, 8 rats in each group) were deprived of food for 24 hours and deprived of water for 19 hours. The rats were then administered orally with a suspension of the test compound in aqueous 0.5% carboxymethylcellulose solution at a dosage of 6, 10 or 20 mg/kg of the test compound. […] One hour after the administration of the ethanolic hydrochloric acid, the rats were killed. Their stomacks were dissected out, and the lower part of the esophagus was nipped with a clip. Aqueous 1% formalin solution (12.0 ml) was poured into the stomacks from duodenum and then the duodenal part was nipped by a clip. The whole stomacks were immersed in aqueous 1% formalin solution for about 10 minutes for the fixation, the pyloric stomacks were opened along the greater curvature and then rinsed with water. The gastric mucosa was examined and the necrotic lesions or errosions as formed in the glandular stomack and in the pylorus were examined under anatomic microscope to determine the length (in mm) of the lesions. From the test results obtained by the above procedure, the ED50 value of the tested compound effective for 50% inhibition to the formation of necrotic lesions was evaluated. Omeprazole as the comparative drug was tested in the same manner as above.

gastric acid secretion = assay: Gastric acid antisecretory activity (tetragastrin-stimulated secretion); format: in vivo, Donryu-strain rats; details: for ED50: Rattus norvegicus, iv, anaesthetized rats, tetragastrin 5 μg/kg, read-out: ED50 effective for 50% inhibition of the gastric acid secretion
Experimental: The bilateral vagus nerves in the cervical region of the rats were surgically cut and cannulas were inserted into the pylorus and also into the esophagus, respectively, and tied in place according to the method of Ghosh and Schild (see "Brit. J. Pharmacol." 13, 54 (1958)). Aqueous 0.9% saline solution (pH 8.5) as warmed to 40° C. was passed through the […] cannula into the stomack at a rate of 1 ml/min. for the perfusion. The pH value of the effluent coming from the pyloral cannula was measured. At the stage when the pH value of said effluent became steady, 5 μg/kg of tetragastrin, a stimulant for the gastric acid secretion, was administered through a cannula which had been inserted into the cervical vein. After the administration of tetragastrin,the decreasing change of pH value in the effluent was measured at constant intervals of time. Subsequently, a solution of the test compound in methanol was intraveously administered to the rat, and 15 minutes later tetragastrin was again administered. From the test data of the pH measurements so obtained was evaluated the ED50 value of the tested compound effective for 50% inhibition of the gastric acid secretion.

[1] = pre-incubated 30 minutes at 37° C., pH 7.3, with or without 50 mM KCl, read-out: IC50 value required for 50% inhibition of the enzymatic activity

| H^+,K^+ -ATPase inhibition (in words) (H^+,K^+ -ATPase) | IC50 (H^+,K^+ -ATPase; [1]) | IC50 (H^+,K^+ -ATPase) | Structure (SMILES) | activity at 100 µM (rabbit gastric glands) | activity at 10 µM (rabbit gastric glands) | activity at 1 µM (rabbit gastric glands) | ED50 (gastric mucosa) | ED50 (gastric acid secretion) | gastric acid antisecretory activity (in words) (gastric acid secretion; rat, in vivo) |
| --- | --- | --- | --- | --- | --- | --- | --- | --- | --- |
| H^+,K^+ -ATPase inhibitors | 50 µM | – | Cc1cnc(CSc2cc3ccccc3[nH]2)cc1N1CCCCC1 [Example 1, 2-[(5-methyl-4-piperidino-2-pyridyl)methylthio]indole] | 7% | 14% | 44% | 11.5 mg/kg | 7.58 mg/kg | remarkedly milder than that of opeprazole |
| – | – | – | CN(C)c1ccnc(CSc2c[nH]c3ccccc23)c1 [Example 2, 3-[(4-dimethylamino-2-pyridyl)methylthio]indole] | 24% | 72% | 111% | – | – | – |
| – | – | – | Cc1cnc(C[S+]([O-])c2cc3ccccc3[nH]2)cc1N1CCCCC1 (centres unmarked) [Example 3, 2-[(5-methyl-4-piperidino-2-pyridyl)methylsulfinyl]indole] | 54% | 64% | 99% | – | – | – |
| – | – | – | Cc1cnc(CSc2cc3ccccc3n2C)cc1N1CCCCC1 [Example 4, 1-methyl-2-[(5-methyl-4-piperidino-2-pyridyl)methylthio]indole] | 7% | 8% | 50% | – | – | – |
| – | – | – | Cc1ccc2[nH]c(SCc3cc(N4CCCCC4)c(C)cn3)cc2c1 [Example 5, 5-methyl-2-[(5-methyl-4-piperidino-2-pyridyl)methylthio]indole] | 11% | 18% | 56% | 8.59 mg/kg | – | – |
| – | – | – | Cc1cnc(CSc2cc3cc(F)ccc3[nH]2)cc1N1CCCCC1 [Example 6, 5-fluoro-2-[(5-methyl-4-piperidino-2-pyridyl)methylthio]indole] | 14% | 76% | 48% | 12.7 mg/kg | – | – |
| – | – | – | Cc1cnc(CSc2cc3cc(C(F)(F)F)ccc3[nH]2)cc1N1CCCCC1 [Example 7, 5-trifluoromethyl-2-[(5-methyl-4-piperidino-2-pyridyl)methylthio]indole] | 14% | 17% | 55% | 9.77 mg/kg | – | – |
| – | – | – | CCOC(=O)c1ccc2[nH]c(SCc3cc(N4CCCCC4)c(C)cn3)cc2c1 [Example 9, 5-ethoxycarbonyl-2-[(5-methyl-4-piperidino-2-pyridyl)methylthio]indole] | 15% | 20% | 61% | – | – | – |
| – | – | – | Cc1c(N2CCCCC2)ccnc1CSc1cc2ccccc2[nH]1 [Example 10, 2-[(3-methyl-4-piperidino-2-pyridyl)methylthio]indole] | 4% | 19% | 71% | – | – | – |
| – | – | – | Cc1cnc(CSc2cc3ccccc3[nH]2)cc1N1CCOCC1 [Example 11, 2-[(5-methyl-4-morpholino-2-pyridyl)methylthio]indole] | 3% | 56% | 106% | – | – | – |
| – | – | – | Cc1cnc(CSc2cc3ccccc3[nH]2)cc1N1CCCC1 [Example 12, 2-[(5-methyl-4-pyrrolidino-2-pyridyl)methylthio]indole] | 10% | 11% | 48% | – | – | – |
| H^+,K^+ -ATPase inhibitors | 700 µM | – | CN(C)c1ccnc(CSc2cc3ccccc3[nH]2)c1 [Example 13, 2-[(4-Dimethylamino-2-pyridyl)methylthio]indole] | 3% | 48% | 118% | 9.17 mg/kg | – | – |
| – | – | – | COc1ccc2[nH]c(SCc3cc(N4CCCCC4)c(C)cn3)cc2c1 [Example 21, 5-methoxy-2-[(5-methyl-4-piperidino-2-pyridyl)methylthio]indole] | – | – | – | 14.6 mg/kg | – | – |
| – | – | – | c1ccc2[nH]c(SCc3cc(N4CCCCC4)ccn3)cc2c1 [Example 22, 2-[(4-piperidino-2-pyridyl)methylthio]indole] | – | – | – | 8.13 mg/kg | – | – |
| – | – | – | Clc1ccnc(CSc2c[nH]c3ccccc23)c1 [Example 37, 3-[(4-chloro-2-pyridyl)methylthio]indole] | 95% | 105% | 114% | – | – | – |
| – | – | – | CCOC(=O)c1ccnc(CSc2c[nH]c3ccccc23)c1 [Example 38, 3-[(4-ethoxycarbonyl-2-pyridyl)methylthio]indole] | 141% | 103% | 120% | – | – | – |
| – | – | – | Oc1ccnc(CSc2c[nH]c3ccccc23)c1 [Example 39, 3-[(4-hydroxy-2-pyridyl)methylthio]indole] | 105% | 109% | 120% | – | – | – |
| – | – | – | Cc1cnc(CSc2c[nH]c3ccccc23)cc1N1CCCCC1 [Example 40, 3-[(5-methyl-4-piperidino-2-pyridyl)methylthio]indole] | – | – | – | 2.84 mg/kg | – | – |
| – | – | 9.4 µM | COc1ccc2nc([S+]([O-])Cc3ncc(C)c(OC)c3C)[nH]c2c1 (centres unmarked) [Omeprazole, 2-[(3,5-dimethyl-4-methoxy-2-pyridyl)methylsulfinyl]-5-methoxybenzimidazole, reference compound] | 18% | 25% | 34% | 34.1 mg/kg | 0.24 mg/kg | – |
